# Legend:
# NCI/ADR-RES = experiment: cells; conditions: Homo sapiens, 48 h; for CC50: read-out: LC50
# RPMI-8226 = experiment: cells; conditions: Homo sapiens, RPMI-8226, 48 h; for CC50: read-out: LC50
# SR = experiment: cells; conditions: Homo sapiens, 48 h; for CC50: read-out: LC50
# UACC-257 = experiment: cells; conditions: Homo sapiens, UACC-257, 48 h; for CC50: read-out: LC50
# MDA-MB-435 = experiment: cells; conditions: Homo sapiens, MDA-MB-435, 48 h; for CC50: read-out: LC50
# HS 578T = experiment: cells; conditions: Homo sapiens, 48 h; for CC50: read-out: LC50
# M14 = experiment: cells; conditions: Homo sapiens, M14, 48 h; for CC50: read-out: LC50
# SNB-75 = experiment: cells; conditions: Homo sapiens, SNB-75, 48 h; for CC50: read-out: LC50
# [1] = test system: M. tuberculosis ATCC 27294; experiment: Antitubercular broth microdilution MIC; type: cell-based; conditions: Mycobacterium tuberculosis; M. tuberculosis ATCC 27294 (H37Rv); read-out: Minimum inhibitory concentration (MIC)
# NCI-H522 = experiment: cells; conditions: Homo sapiens, NCI-H522, 48 h; for CC50: read-out: LC50
# TK-10 = experiment: cells; conditions: Homo sapiens, TK-10, 48 h; for CC50: read-out: LC50
# SN12C = experiment: cells; conditions: Homo sapiens, 48 h; for CC50: read-out: LC50
# SNB-19 = experiment: cells; conditions: Homo sapiens, SNB-19, 48 h; for CC50: read-out: LC50
# NCI-H226 = experiment: cells; conditions: Homo sapiens, NCI-H226, 48 h; for CC50: read-out: LC50
# MDA-MB-468 = experiment: cells; conditions: Homo sapiens, MDA-MB-468, 48 h; for CC50: read-out: LC50
# HL-60(TB) = experiment: cells; conditions: Homo sapiens, HL-60, 48 h; for CC50: read-out: LC50
# MCF7 = experiment: cells; conditions: Homo sapiens, MCF7, 48 h; for CC50: read-out: LC50
# SF-539 = experiment: cells; conditions: Homo sapiens, SF-539, 48 h; for CC50: read-out: LC50, SF-539, 48 h
# OVCAR-4 = experiment: cells; conditions: Homo sapiens, OVCAR-4, 48 h; for CC50: read-out: LC50
# 60 cancer cell lines = experiment: NCI-60 one-dose screen (10 μM); type: cell-based; conditions: Homo sapiens; one dose of 10 μM, mean over 60 cancer cell lines; read-out: Mean Growth Percent (MGP)
# Description: Additionally, the mean of the growth percentages (MGP) of each compound against all the 60 cancer cell lines is also reported, which is used as one of the selection criteria to continue with tests at five concentration doses.
# OVCAR-8 = experiment: cells; conditions: Homo sapiens, OVCAR-8, 48 h; for CC50: read-out: LC50
# NCI-H322M = experiment: cells; conditions: Homo sapiens, 48 h; for CC50: read-out: LC50
# UACC-62 = experiment: cells; conditions: Homo sapiens, UACC-62, 48 h; for CC50: read-out: LC50
# BT-549 = experiment: cells; conditions: Homo sapiens, BT-549, 48 h; for CC50: read-out: LC50
# DU-145 = experiment: cells; conditions: Homo sapiens, DU-145, 48 h; for CC50: read-out: LC50
smiles,measurement,setting,value
CN(C)c1nc(NCCNS(=O)(=O)c2ccc(C(=O)/C=C/c3ccccc3)cc2)nc(Nc2ccc(F)cc2)n1 [24a],GI50,NCI/ADR-RES,7.33 µM
same,CC50,NCI/ADR-RES,50.3 µM
same,GI50,RPMI-8226,3.04 µM
same,CC50,RPMI-8226,> 100 µM
same,GI50,SR,2.58 µM
same,CC50,SR,> 100 µM
same,GI50,UACC-257,12.6 µM
same,CC50,UACC-257,61 µM
same,GI50,MDA-MB-435,7.44 µM
same,CC50,MDA-MB-435,59.8 µM
same,GI50,HS 578T,7.39 µM
same,CC50,HS 578T,> 100 µM
same,GI50,M14,5.98 µM
same,CC50,M14,51.5 µM
same,GI50,SNB-75,3.23 µM
same,CC50,SNB-75,> 100 µM
same,MIC,[1],25 µg/mL
same,GI50,NCI-H522,5.47 µM
same,CC50,NCI-H522,53.6 µM
same,GI50,TK-10,14.6 µM
same,CC50,TK-10,65.5 µM
same,GI50,SN12C,8.2 µM
same,CC50,SN12C,46.2 µM
same,GI50,SNB-19,10.4 µM
same,CC50,SNB-19,51 µM
same,GI50,NCI-H226,5.22 µM
same,CC50,NCI-H226,57.3 µM
same,GI50,MDA-MB-468,2.84 µM
same,CC50,MDA-MB-468,37.6 µM
same,GI50,HL-60(TB),3.88 µM
same,CC50,HL-60(TB),> 100 µM
same,GI50,MCF7,1.99 µM
same,CC50,MCF7,8.23 µM
same,GI50,SF-539,12 µM
same,CC50,SF-539,50.2 µM
same,GI50,OVCAR-4,4.39 µM
same,CC50,OVCAR-4,99.3 µM
same,activity at 10 µM,60 cancer cell lines,13.6%
same,GI50,OVCAR-8,12.2 µM
same,CC50,OVCAR-8,57.1 µM
same,GI50,NCI-H322M,9.83 µM
same,CC50,NCI-H322M,76.9 µM
same,GI50,UACC-62,6.68 µM
same,CC50,UACC-62,46.9 µM
same,GI50,BT-549,13.9 µM
same,CC50,BT-549,54.3 µM
same,GI50,DU-145,12.1 µM
same,CC50,DU-145,53.2 µM
Cc1ccc(/C=C/C(=O)c2ccc(S(=O)(=O)NCCNc3nc(Nc4ccc(F)cc4)nc(N(C)C)n3)cc2)cc1 [24b],GI50,NCI/ADR-RES,8.4 µM
same,CC50,NCI/ADR-RES,47.1 µM
same,GI50,RPMI-8226,2.73 µM
same,CC50,RPMI-8226,> 100 µM
same,GI50,SR,2.76 µM
same,CC50,SR,> 100 µM
same,GI50,UACC-257,17.4 µM
same,CC50,UACC-257,62.9 µM
same,GI50,MDA-MB-435,6.03 µM
same,CC50,MDA-MB-435,61.7 µM
same,GI50,HS 578T,10.7 µM
same,CC50,HS 578T,> 100 µM
same,GI50,M14,5.91 µM
same,CC50,M14,49.2 µM
same,GI50,SNB-75,7.59 µM
same,CC50,SNB-75,> 100 µM
same,MIC,[1],25 µg/mL
same,GI50,NCI-H522,5.24 µM
same,CC50,NCI-H522,45.3 µM
same,GI50,TK-10,15.2 µM
same,CC50,TK-10,61.9 µM
same,GI50,SN12C,11.2 µM
same,CC50,SN12C,48.8 µM
same,GI50,SNB-19,11 µM
same,CC50,SNB-19,50.2 µM
same,GI50,NCI-H226,10.4 µM
same,CC50,NCI-H226,63.9 µM
same,GI50,MDA-MB-468,4.66 µM
same,CC50,MDA-MB-468,43 µM
same,GI50,HL-60(TB),5.58 µM
same,CC50,HL-60(TB),> 100 µM
same,GI50,MCF7,2.01 µM
same,CC50,MCF7,25.2 µM
same,GI50,SF-539,13 µM
same,CC50,SF-539,51.7 µM
same,GI50,OVCAR-4,7.79 µM
same,CC50,OVCAR-4,> 100 µM
same,activity at 10 µM,60 cancer cell lines,16.5%
same,GI50,OVCAR-8,13 µM
same,CC50,OVCAR-8,56 µM
same,GI50,NCI-H322M,11.8 µM
same,CC50,NCI-H322M,62.5 µM
same,GI50,UACC-62,8.4 µM
same,CC50,UACC-62,47.1 µM
same,GI50,BT-549,15.7 µM
same,CC50,BT-549,57.8 µM
same,GI50,DU-145,14 µM
same,CC50,DU-145,74.8 µM
